The values that follow come from US10774084B2, “Adenine derivatives and their use as UV-photoprotective agents” (UNIVERZITA PALACKEHO V OLOMOUCI, priority 2015, dated 2020).

Data set [1] relates to Normal Human Epidermal Keratinocytes (NHEK). The data set can be described thus: In vitro phototoxicity test (neutral red) on NHEK. The class given is cell-based. The text has this: Normal Human Epidermal Keratinocytes (NHEK) were used as an in vitro model. Cells were isolated from tissue specimens obtained from healthy patients undergoing plastic surgery at the Department of Plastic and Aesthetic Surgery (University Hospital Olomouc). The use of skin tissue was in accordance with the Ethics Committee of the University Hospital and Faculty of Medicine and Dentistry, Palacky University, Olomouc and all patients signed written informed consent. NHEK were used between the 3rd and 4th passage. […] Intensity of UVA radiation was evaluated before each irradiation by UVA-meter. […]
After UVA exposure PBS with glucose was discarded and serum free medium was applied. After 24 hours (37° C., 5% CO2) cell damage was evaluated by neutral red (NR) incorporation into viable cells. […] After 5 minutes of intensive shaking absorbance was measured at 540 nm. […] Phototoxic effect was evaluated as % of viability of control cells that was calculated from experimental data (absorbance) according to the following equation: […]
AS . . . absorbance of sample (cells pre-incubated with test compound in serum free medium and irradiated)
AC . . . absorbance of control (cells pre-incubated with DMSO in serum free medium and irradiated)
AB . . . absorbance of background (extraction solution)

In the next data set the test system is ROS production. The data set can be described thus: UVA-induced ROS production in NHDF (H2DCFDA). The class given is cell-based, human. The text has this: Normal human dermal fibroblasts (NHDF) were used as an in vitro model. Cells were isolated from tissue specimens obtained from healthy patients undergoing plastic surgery at the Department of Plastic and Aesthetic Surgery (University Hospital Olomouc). The use of skin tissue was in accordance with the Ethics Committee of the University Hospital and Faculty of Medicine and Dentistry, Palacky University, Olomouc and all patients signed written informed consent. Fibroblasts were used between the 2nd and 4th passage. […]
Test compounds included 6-(tetrahydrofuran-2-ylmethylamino)-9-(tetrahydrofuran-2-yl)purine and positive control (rosmarinic acid). […] Intensity of UVA radiation was evaluated before each irradiation by UVA-meter. […] After 1 hour (37° C., 5% CO2) cell damage was evaluated by analysis of reactive oxygen species (ROS) production. In parallel, intracellular levels of glutathion (GSH) were measured 4 hours (37° C., 5% CO2) after UVA application.
ROS production was evaluated by 2,7-Dichlorodihydrofluorescein diacetate (H2DCFDA). […] Samples were applied on 96-well plate and fluorescence was measured (488/525 nm) (INFINITE M200, Tecan, Switzerland) after centrifugation (10 000 rpm, 4° C., 10 min). Protein content was analyzed spectrophotometrically by bicinchoninic acid at 562 nm (INFINITE M200, Tecan, Switzerland). […]

Regarding `CN(C)CCCN1c2ccccc2Sc2ccc(Cl)cc21` [chlorpromazine, reference compound], the “viability of NHEK cells” value in data set [1] (UVA+, 0.6 μmol/l) was “below 80 % of control”; in data set [1] (UVA−, 12.5 μmol/l), “below 50%”.
As to `c1nc(NCC2CCCO2)c2ncn(C3CCCO3)c2n1` (stereo not shown) [Compound 1, 6-(tetrahydrofuran-2-ylmethylamino)-9-(tetrahydrofuran-2-yl)purine], the “protection against production of ROS in comparison with rosmarinic acid (in words)” value with ROS production (UVA, NHDF) is “more effective”. In the data set with ROS production (non-irradiated NHDF, 2.5-20 μmol/l), the “effect on ROS production in non-irradiated cells (in words)” value is “did not showed negative effect”.
